Assay results: PubChem BioAssay (NCI)
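Test compounds were applied to cells in 96-well plates for 48 hours at 5 doses. GI50 = concentration required for 50% inhibition of growth. TGI: concentration producing complete growth inhibition.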

Columns and labels:
Test in all cases: NCI anticancer screen, dose series, 48 h
SN12C renal = system: SN12C renal
SR leukemia = system: SR leukemia
BT-549 breast = system: BT-549 breast
OVCAR-8 ovarian = system: OVCAR-8 ovarian
NCI-H23 lung = system: NCI-H23 lung
SK-MEL-2 melanoma = system: SK-MEL-2 melanoma
SK-MEL-28 melanoma = system: SK-MEL-28 melanoma
A498 renal = system: A498 renal
HT29 colon = system: HT29 colon
NCI-H460 lung = system: NCI-H460 lung

**Q.** For O=C(NCCCc1cn[nH]c(=O)n1)c1cccc2nc3ccccc3nc12, which TGI (SN12C renal) is on record?
**A.** > 100 µM

**Q.** And the TGI (SR leukemia)?
**A.** > 100 µM

**Q.** What about the TGI (BT-549 breast) of the same molecule?
**A.** > 100 µM

**Q.** And the TGI (OVCAR-8 ovarian)?
**A.** > 100 µM

**Q.** What about the TGI (NCI-H23 lung) of the same molecule?
**A.** > 100 µM

**Q.** And the TGI (SK-MEL-2 melanoma)?
**A.** > 100 µM

**Q.** And the TGI (SK-MEL-28 melanoma)?
**A.** > 100 µM

**Q.** And the TGI (A498 renal)?
**A.** > 100 µM

**Q.** And the TGI (HT29 colon)?
**A.** > 100 µM

**Q.** What about the TGI (NCI-H460 lung) of the same molecule?
**A.** > 100 µM

**Q.** Which TGI (SN12C renal) does the source give for COc1cc(C2c3cc4c(cc3OC(NNc3ccccc3)C2C)OCO4)cc(OC)c1O (stereo not given) here?
**A.** 4.63 µM

**Q.** What about the TGI (SR leukemia) of the same molecule?
**A.** 29.7 µM

**Q.** What about the TGI (BT-549 breast) of the same molecule?
**A.** 28 µM

**Q.** What about the TGI (OVCAR-8 ovarian) of the same molecule?
**A.** 23.8 µM

**Q.** And the TGI (NCI-H23 lung)?
**A.** 29.4 µM

**Q.** And the TGI (SK-MEL-2 melanoma)?
**A.** 6.35 µM

**Q.** What about the TGI (SK-MEL-28 melanoma) of the same molecule?
**A.** 21.3 µM

**Q.** And the TGI (A498 renal)?
**A.** 16.3 µM

**Q.** What about the TGI (HT29 colon) of the same molecule?
**A.** 16.7 µM

**Q.** What about the TGI (NCI-H460 lung) of the same molecule?
**A.** 17.7 µM

**Q.** For COc1ccc(C=NCCCN=Cc2ccc(OC)cc2O)c(O)c1, which TGI (SN12C renal) is on record?
**A.** 90.6 µM

**Q.** What about the TGI (SR leukemia) of the same molecule?
**A.** > 100 µM

**Q.** What about the TGI (BT-549 breast) of the same molecule?
**A.** > 100 µM

**Q.** And the TGI (OVCAR-8 ovarian)?
**A.** > 100 µM

**Q.** And the TGI (NCI-H23 lung)?
**A.** > 100 µM

**Q.** What about the TGI (SK-MEL-2 melanoma) of the same molecule?
**A.** > 100 µM

**Q.** And the TGI (SK-MEL-28 melanoma)?
**A.** > 100 µM

**Q.** And the TGI (A498 renal)?
**A.** > 100 µM

**Q.** What about the TGI (HT29 colon) of the same molecule?
**A.** > 100 µM

**Q.** What about the TGI (NCI-H460 lung) of the same molecule?
**A.** > 100 µM

**Q.** Which results are given for O=C1C(c2c(O)[nH]c3ccc(I)cc23)=Nc2ccccc21?
**A.** TGI (SN12C renal): > 74.1 µM; TGI (SR leukemia): > 100 µM; TGI (BT-549 breast): 29.2 µM; TGI (OVCAR-8 ovarian): 4.74 µM; TGI (NCI-H23 lung): 45.7 µM; TGI (SK-MEL-2 melanoma): 15.4 µM; TGI (SK-MEL-28 melanoma): > 86.3 µM; TGI (A498 renal): 5.57 µM; TGI (HT29 colon): > 100 µM; TGI (NCI-H460 lung): > 88.6 µM

**Q.** Which results are given for COc1cc(/C=C/c2ccc(S(N)(=O)=O)cc2)cc(OC)c1?
**A.** TGI (SN12C renal): 55.2 µM; GI50 (SR leukemia): 19.7 µM; TGI (SR leukemia): 38 µM; GI50 (BT-549 breast): 10.7 µM; TGI (BT-549 breast): 41.1 µM; GI50 (OVCAR-8 ovarian): 37.9 µM; TGI (OVCAR-8 ovarian): > 100 µM; GI50 (NCI-H23 lung): 22.5 µM; TGI (NCI-H23 lung): 49.8 µM; TGI (SK-MEL-2 melanoma): 40.3 µM; TGI (SK-MEL-28 melanoma): 56.8 µM; TGI (A498 renal): 39.5 µM; GI50 (HT29 colon): 16.2 µM; TGI (HT29 colon): 33.2 µM; TGI (NCI-H460 lung): 42.9 µM

**Q.** How did the GI50 (SN12C renal) turn out when Nc1nc(N)c2nc(CNc3ccc(C(=O)NC(CCNC(=O)c4ccccc4C(=O)O)C(=O)O)cc3)cnc2n1 (stereo not given) was run?
**A.** 0.102 µM

**Q.** What about the TGI (SN12C renal) of the same molecule?
**A.** > 100 µM

**Q.** And the GI50 (SR leukemia)?
**A.** 0.00433 µM

**Q.** And the TGI (SR leukemia)?
**A.** > 100 µM

**Q.** And the TGI (BT-549 breast)?
**A.** > 100 µM

**Q.** And the GI50 (OVCAR-8 ovarian)?
**A.** 0.00813 µM

**Q.** And the TGI (OVCAR-8 ovarian)?
**A.** > 100 µM

**Q.** What about the GI50 (NCI-H23 lung) of the same molecule?
**A.** 0.0324 µM

**Q.** What about the TGI (NCI-H23 lung) of the same molecule?
**A.** > 100 µM

**Q.** And the TGI (SK-MEL-2 melanoma)?
**A.** > 100 µM

**Q.** And the TGI (SK-MEL-28 melanoma)?
**A.** > 100 µM

**Q.** What about the TGI (A498 renal) of the same molecule?
**A.** > 100 µM

**Q.** What about the TGI (HT29 colon) of the same molecule?
**A.** > 100 µM

**Q.** What about the GI50 (NCI-H460 lung) of the same molecule?
**A.** 0.0144 µM

**Q.** What about the TGI (NCI-H460 lung) of the same molecule?
**A.** > 100 µM

**Q.** For COC(=O)C1=C(C)NC2=C(C(=O)c3ccccc32)C1c1cn[nH]c1-c1ccccc1 (stereo not given), which TGI (SN12C renal) is on record?
**A.** > 100 µM

**Q.** And the TGI (SR leukemia)?
**A.** 87.4 µM

**Q.** And the TGI (BT-549 breast)?
**A.** > 100 µM

**Q.** And the TGI (OVCAR-8 ovarian)?
**A.** > 100 µM

**Q.** And the TGI (NCI-H23 lung)?
**A.** > 100 µM

**Q.** What about the TGI (SK-MEL-2 melanoma) of the same molecule?
**A.** > 100 µM

**Q.** And the TGI (SK-MEL-28 melanoma)?
**A.** > 100 µM

**Q.** What about the TGI (A498 renal) of the same molecule?
**A.** > 100 µM

**Q.** What about the TGI (HT29 colon) of the same molecule?
**A.** > 100 µM

**Q.** And the TGI (NCI-H460 lung)?
**A.** > 100 µM
